Measurements published in patent publication US20060002888A1, “Polyionenes for treating infections associated with cystic fibrosis” (Genzyme Corporation, priority 2002, published 2006).
In brackets after ≈: the same amount, converted by molar mass. Read-outs that look alike come from different tables or passages of the source.

Assays:
[1] = tested on: A-549 lung epithelial cells; experiment: IC50 in A-549 lung epithelial cells; assay type: cell-based; conditions: Homo sapiens, A549
Description: (§1) Poly(trimethylene dipyridine-alt-5-oxanonane) having a molecular weight of 0.5 to 1 kDa was tested in A-549 lung epithelial cells to determine its IC50 value in comparison with tobramycin, a conventional antibiotic. In addition, the minimum inhibitory concentrations for the two compounds were determined in vitro for a number of bacterial strains and species. The results are as shown below, where all concentrations are expressed as μg/mL: […]

B. cepacia = experiment: Minimum inhibitory concentration in vitro (Example 26); assay type: cell-based; conditions: Burkholderia cepacia
Description: as §1

P. aeruginosa [2] = experiment: as above; assay type: cell-based; conditions: Pseudomonas aeruginosa
Description: as §1

S. aureus = experiment: as above; assay type: cell-based; conditions: Staphylococcus aureus
Description: as §1

S. maltophilia = experiment: as above; assay type: cell-based; conditions: Stenotrophomonas maltophilia
Description: as §1

P. aeruginosa [3] = conditions: within 11 passages, published studies; cited from earlier work
MRSA = conditions: over 15 passages, published studies; cited from earlier work

Molecule: NC[C@H]1O[C@H](O[C@H]2[C@H](O)[C@@H](O[C@H]3O[C@H](CO)[C@@H](O)[C@H](N)[C@H]3O)[C@H](N)C[C@@H]2N)[C@H](N)C[C@@H]1O [Tobramycin]
- IC50 [1]: 5000 µg/mL (≈ 10700 µM)
- MIC (B. cepacia): > 50 µg/mL
- MIC (P. aeruginosa [2]; strain G38, read-out: MIC P. aeruginosa G38): 0.39 µg/mL (≈ 0.834 µM)
- MIC (P. aeruginosa [2]; strain PA01, read-out: MIC P. aeruginosa PA01): 0.39 µg/mL (≈ 0.834 µM)
- MIC (S. aureus): 0.195 µg/mL (≈ 0.417 µM)
- MIC (S. maltophilia): 25 µg/mL (≈ 53.5 µM)

Molecule: CCn1cc(C(=O)O)c(=O)c2cc(F)c(N3CCNCC3)cc21 [norfloxacin]
- Rise of the MIC (P. aeruginosa [3]): 10 fold
- Rise of the MIC (MRSA): 85 fold

Molecule: gentamicin
- Rise of the MIC (P. aeruginosa [3]): 190 fold
